Data from PMC11459959, “Discovery of new acetamide derivatives of 5-indole-1,3,4-oxadiazol-2-thiol as inhibitors of HIV-1 Tat-mediated viral transcription” (Antimicrobial Agents and Chemotherapy, 2024).

Columns and labels:
HIV-1 transcripts = test: RNA-seq of HIV-1 transcripts in infected TZM-bl cells; format: cell-based; details: HIV-1NL4-3 MOI 1, 1.5 µM, 2 days
Experimental: At 48 h after infection, the total RNA was extracted using the Maxwell RSC simplyRNA Cells Kit (Promega) according to the manufacturer’s instructions. RNA integrity was evaluated as RNA integrity number >6 using the Agilent 2100 Bio-analyzer (Agilent Technologies, Santa Clara, CA, USA). The cDNA libraries were constructed using TruSeq Stranded mRNA Sample Preparation Kit (Illumina, San Diego, CA, USA) according to the manufacturer’s instructions. Subsequently, these cDNA libraries were sequenced on the Illumina sequencing platform (NovaSeq6000; Illumina) and 150 bp paired-end reads were generated. Trimmomatic (v.0.32) was used to eliminate low-quality reads and adapter sequences from the sequencing data ([64]). Subsequently, the filtered reads were aligned to the HIV-1 genome (accession: AF324493.2) using STAR (v.2.3.0) ([65]). RT-qPCR analyses were performed as previously described ([66]) with some minor modifications. […] After infection, the infected cells were treated with 1.5 µM of the compounds. Forty-eight hours after treatment, the viral mRNA was isolated, converted to cDNA, and quantified through RT-qPCR on a 7500 Real-Time PCR System (Applied Biosystems) using the Power SYBR Green PCR Master Mix (Applied Biosystems). The comparative cycle threshold (Ct) method was used to analyze relative changes (Δ) in gene expression. The ΔCt values were determined using a 7500 Real-Time PCR System Software (Applied Biosystems) normalizing with gapdh, and the gene expression was calculated using the ΔΔCt-method. The primers used in this assay are the following: gag forward, 5′-[…]-3′, gag reverse, 5′-[…]-3′; gapdh forward, 5′-[…]-3′, gapdh reverse, 5′-[…]-3′.

[1] = target: T1, interaction between Tat and cyclin T1 (Human immunodeficiency virus type 1 group M subtype B, UniProt P04608); test: Co-immunoprecipitation of Tat and cyclin T1; format: cell-based; details: co-immunoprecipitation in transfected cells
T1 construct: expressed in transfected cells; the methods paragraph b60 says 293T
T1 sequence (P04608 whole entry): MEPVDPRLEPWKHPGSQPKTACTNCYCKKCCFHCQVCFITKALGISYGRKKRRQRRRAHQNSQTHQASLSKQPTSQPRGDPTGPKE
Experimental: The co-immunoprecipitation assay was performed as previously described ([12], [58]). Briefly, 293T cells were transfected with Tat-expressing plasmids (pcDNA3–Flag–Tat86) using Lipofectamine 2000 (Invitrogen). After 48 h, the cells were lysed in an immunoprecipitation buffer [250 mM NaCl, 0.5% NP-40, 50 mM Tris-HCl (pH 7.5), 5 mM ethylenediaminetetraacetic acid, and protease/phosphatase inhibitor cocktail]. The cell lysates were subsequently incubated with an anti-Flag monoclonal antibody (M2; Sigma-Aldrich) at 4°C. After overnight incubation, the immune complex was then pulled down with protein A/G-agarose beads (Santa Cruz Biotechnology) and analyzed using western blotting.
Supplementary Figure S6. A. Quantitativereal-timePCRofHIV-1mRNAfromHIV-1 NL4-3-infectedA3.01cells treated oruntreatedwiththeindicatedcompoundswasperformedusingthe envprimerset,andlevelswerenormalizedtothoseof gapdh. Thedata
represent the relative fold change compared with DMSO treatment (n = 3).B. Effect of the compounds on NF-κB promoter activity assessed using a luciferase assay. […]
pCMV-R-Luc (200 ng). […] Theluciferase activity was determined using aDual-GloTMLuciferase assaykit (Promega).
The data normalized to the R-Luc activity are expressed as themean±SD (n = 3) of the relative fold activitycompared with the no-PMA(vehicle) treatment.C. […]

Row | SMILES | read counts of transcripts mapped to the HIV-1 genome (HIV-1 transcripts) | change in interaction between Tat and cyclin T1 [1]
1 | Cc1[nH]c2ccc(-c3nnc(SCC(=O)N4CCCC4)o3)cc2c1C [Compound 13, 2-((5-(2,3-Dimethyl-1H-indol-5-yl)-1,3,4-oxadiazol-2-yl)thio)-1-(pyrrolidin-1-yl)ethan-1-one] | substantially reduced | no changes were observed
2 | Cc1[nH]c2ccc(-c3nnc(SCC(=O)N4CCCCC4)o3)cc2c1C [Compound 9, 2-((5-(2,3-Dimethyl-1H-indol-5-yl)-1,3,4-oxadiazol-2-yl)thio)-1-(piperidin-1-yl)ethan-1-one] | substantially reduced | no changes were observed
